In patent US10175228B2, “Method of using transmembrane channel-like protein 6 (TMC6) protein to identify substances affecting salty taste” (priority 2016, dated 2019):
Counter-ions that a name gives are not always drawn.

How the values were obtained:
mouse TMC6 protein = biological target: T1, mouse TMC6 protein (Mus musculus, UniProt Q7TN60, A788T); assay: Calcium imaging (YC2.60 FRET) of CHO-K1 cells expressing the mouse TMC6 gene; type: cell-based; details: one typical TMC6-expressing cell, stimulation with ATP stimulation solution (50 μM ATP), FIG. 13C
T1 construct: expressed in transfected cells; host or cells: CHO-K1
T1 sequence (Q7TN60 1-810 A788T): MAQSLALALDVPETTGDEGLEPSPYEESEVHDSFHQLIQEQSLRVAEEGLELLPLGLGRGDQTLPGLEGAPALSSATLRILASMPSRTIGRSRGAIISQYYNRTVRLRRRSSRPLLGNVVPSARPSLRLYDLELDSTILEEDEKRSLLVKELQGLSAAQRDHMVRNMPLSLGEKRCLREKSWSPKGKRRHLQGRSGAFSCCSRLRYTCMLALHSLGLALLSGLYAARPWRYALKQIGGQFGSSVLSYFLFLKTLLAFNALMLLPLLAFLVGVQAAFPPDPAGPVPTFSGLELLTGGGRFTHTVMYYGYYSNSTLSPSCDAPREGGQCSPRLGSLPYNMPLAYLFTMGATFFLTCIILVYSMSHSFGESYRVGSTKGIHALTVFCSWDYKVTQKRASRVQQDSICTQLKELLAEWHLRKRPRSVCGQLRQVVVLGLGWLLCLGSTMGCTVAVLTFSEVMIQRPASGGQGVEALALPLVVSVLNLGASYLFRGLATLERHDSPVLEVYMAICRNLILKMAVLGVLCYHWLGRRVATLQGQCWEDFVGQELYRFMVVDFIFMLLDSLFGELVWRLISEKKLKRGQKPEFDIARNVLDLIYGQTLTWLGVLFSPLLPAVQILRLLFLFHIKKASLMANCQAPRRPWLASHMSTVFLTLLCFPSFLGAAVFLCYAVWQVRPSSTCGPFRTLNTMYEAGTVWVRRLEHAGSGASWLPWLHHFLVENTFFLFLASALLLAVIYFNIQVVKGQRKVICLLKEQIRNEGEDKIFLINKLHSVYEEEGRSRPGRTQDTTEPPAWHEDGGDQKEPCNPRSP
Protocol: CHO-K1 cells were transfected with TMC6-pcDNA3.1 or pcDNA3.1 in combination with YC2.60-pcDNA, to prepare TMC6-expressing cells (cells expressing the mouse TMC6 gene and the YC2.60 gene) and control cells (cells expressing the YC2.60 gene). The prepared cells were stimulated, and activation of the cells was measured. The procedure was as follows.
That is, first, CHO-K1 cells (ATCC) were inoculated into a culture dish having a diameter of 60 mm while adjusting the number of the cells to obtain 60% confluence, and cultured for 8 hr. As the medium, 5 mL of Ham's F-12K (Kaighn's) (Life Technologies) containing 10% fetal bovine serum (Life Technologies) was used. A 15 μL aliquot of FuGENE 6 (Promega) was added to 235 μL of Opti-MEM (Thermo Fisher Scientific), and incubated for 5 min at a room temperature. Then, 0.625 μg of TMC6-pcDNA3.1 and 2.5 μg of YC2.60-pcDNA were further added thereto, and incubated for 15 min at a room temperature. Then, the whole of the resultant mixture was dropped into the culture broth of the CHO-K1 cells, and the culture broth was mildly stirred. Then, the cells were further cultured for 18 hr under a condition of 5% CO2 at 37° C., to obtain the TMC6-expressing cells. Similarly, the control cells were obtained through transfection using pcDNA3.1 instead of TMC6-pcDNA3.1.
After the cultivation, the culture broth was removed. A low-concentration NaCl solution (27 mM NaCl, 1 mM KCl, 0.4 mM CaCl2, 0.2 mM MgCl2, 2 mM Hepes (pH7.3), 1 mM NaHCO3, 2 mM glucose, 2 mM sodium pyruvate, and 112 mM NMDG-Cl) was added to the culture dish, incubation was carried out statically for 5 min, and then, stimulation and observation of cells were started. First, the low-concentration NaCl solution was perfused for approximately 80 sec, to provide a ground state. Then, a high-concentration NaCl solution (135 mM NaCl, 1 mM KCl, 0.4 mM CaCl2, 0.2 mM MgCl2, 2 mM Hepes (pH7.3), 1 mM NaHCO3, 2 mM glucose, and 2 mM sodium pyruvate) was perfused instead of the low-concentration NaCl solution for approximately 60 sec, to stimulate the cells. […]

[1] = tested on: wild-type C57BL/6J mouse and homo knockout mouse of the TMC6 gene; assay: Palatability tests for taste substances other than NaCl, two-bottle method; type: in vivo; details: 48 hr, taste substance aqueous solution versus control aqueous solution
Protocol: <Taste Substance Aqueous Solutions>
MSG: 100 mM monosodium glutamate
MSG+IMP: 100 mM monosodium glutamate+1 mM inosinic acid
Citric Acid: 10 mM citric acid
Quinine HCl: 0.3 mM quinine hydrochloride
Fructose: 300 mM fructose

| relative FRET value (YFP/CFP) of the ROI-1 cell (mouse TMC6 protein) | SMILES | difference in palatability or repellency between Tmc6 −/− mouse and wild-type mouse [1] |
| --- | --- | --- |
| ≥ 1.3 | Nc1ncnc2c1ncn2[C@@H]1O[C@H](COP(=O)(O)OP(=O)(O)OP(=O)(O)O)[C@@H](O)[C@H]1O [ATP] |  |
|  | O=C(O)CC(O)(CC(=O)O)C(=O)O [Citric acid, citric acid] | No difference |
|  | O=C(CO)[C@@H](O)[C@H](O)[C@H](O)CO [Fructose, fructose] | No difference |
|  | N[C@@H](CCC(=O)O)C(=O)[O-].[Na+] [MSG, monosodium glutamate] | No difference |
|  | C=C[C@H]1C[N@@]2CC[C@H]1C[C@H]2[C@H](O)c1ccnc2ccc(OC)cc12 [Quinine HCl, quinine hydrochloride] | No difference |
|  | OC[C@H]1O[C@@](CO)(O[C@H]2O[C@H](CO)[C@@H](O)[C@H](O)[C@H]2O)[C@@H](O)[C@@H]1O [Sucrose, sucrose] | No difference |
